The subject of series [1] is human kidney cancer cell lines (CAKI2). In words: Antitumor index from viability of CAKI2 cells vs MCF-12F normal cells (Cell Counting Kit-8, WST-8). The conditions noted are these: 48 hours; for Proliferation of CAKI2 cells (in words): 6.25-25 μM; for Antitumor index: CAKI2 viability A / MCF-12F viability B. The series is classed as cell-based. How it is done:
(§1) Then, peptide-containing test culture mediums for each concentration were prepared so that the concentrations of the sample peptides to be evaluated were 6.25 μM, 12.5 μM, and 25 μM and supplied to wells (that is, wells after the pre-incubation) in which 90 μL of cells to be evaluated were cultured in each well. Then, the 96-hole (well) plate was returned to the CO2 incubator and incubated under conditions of 37° C. and 5% CO2 for 48 hours.
(§2) After the incubation for 48 hours was completed, the culture medium in each well was substituted with 100 μL of a fresh culture medium containing no peptide, and additionally, 10 μL of a cell proliferation measurement reagent “Cell Counting Kit-8” (product, commercially available from Dojindo Laboratories) containing a “water-soluble tetrazolium salt (WST-8)” as a coloring reagent was added to each well. Then, the 96-well plate was returned to the CO2 incubator and incubated under conditions of 37° C., and 5% CO2 for 1.5 hours to 2 hours.
(§3) After the incubation was completed, the cell culture solution to which the reagent was added was collected and the cell viability (%) was calculated according to a colorimetric method in which an absorbance at a wavelength of 450 nm (value corrected by the absorbance at a wavelength of 620 nm: A450-A620) was measured based on the reduction of the tetrazolium salt. Specifically, a measured value (measurement absorbance) of a comparative test group in which the above incubation was performed for 48 hours in a culture medium containing no sample peptide was set as a cell viability of 100%. Then, the viability A (%) of A2058 cells and the viability B (%) of MCF-12F cells were calculated. In addition, an antitumor index was calculated based on the viability of A2058 cells and MCF-12F cells using the above Formula (1), and thus the antitumor activity of the sample peptide with respect to A2058 cells was evaluated.
The antitumor activity of Sample 3 and Sample 4 in the above Test Example 1 was evaluated using different tumor cells as targets.
Specifically, currently commercially available human kidney cancer cell lines (CAKI2) were used as test tumor cells. In addition, the above MCF-12F cells were used for comparison.
a McCoy's 5A culture medium (product, commercially available from Gibco) containing 2 mM of L-glutamine, 3,000 mg/L of glucose, 100 unit/mL of penicillin, 100 μg/mL of streptomycin, and 10% fetal bovine serum (FBS).
Details of the test were as those described in Test Example 2. The antitumor index based on the viabilities of CAKI2 cells and MCF-12F cells calculated using the above Formula (1) is shown in Table 3.
For orientation: Formazan colour is commonly taken as a measure of viable cells.

Series [2] concerns human melanoma (A2058) cell lines. In words: Antitumor index from viability of A2058 cells vs MCF-12F normal cells (Cell Counting Kit-8, WST-8). It counts as cell-based. The conditions noted are these: 48 hours; for Antitumor activity / proliferation of A2058 cells (in words): 6.25-25 μM; for Antitumor index: A2058 viability A / MCF-12F viability B, n=6 wells. How it is done: Specifically, for example, a test using a conventionally known cell proliferation measurement reagent using a tetrazolium salt is performed so that the antitumor index can be calculated. In a preferable aspect, first, the antitumor composition disclosed here is added to a culture solution containing tumor cells, culture is performed for a predetermined time (for example, 24 hours or longer and 72 hours or shorter), and the viability A (%) of tumor cells is calculated. In addition, the viability B (%) of normal cells cultured under the same conditions is calculated. Then, the antitumor index based on the viabilities of tumor cells and normal cells calculated in this manner can be evaluated according to, for example, the following Formula (1):
Antitumor index based on viabilities of tumor cells and normal cells=A/B (1).
The antitumor activity of the peptides of Samples 1 to 4 synthesized in the above Test Example 1 was evaluated using human-derived cultured tumor cells as targets.
Specifically, currently commercially available human melanoma (A2058) cell lines were used as test tumor cells. In addition, a normal human mammary epithelial cell culture line (MCF-12F) was used for comparison. Here, culture solutions of respective cells are as follows.
A2058 cells and MCF-12F cells were cultured and prepared so that the number of cells per well in a 96-hole (well) plate was about 5×10^3. An amount of the culture medium in this case was 100 μL per well.
Next, the 96-hole (well) plate was placed in a CO2 incubator and pre-incubated under conditions of 37° C. and 5% CO2 for about 1 day (21 hours to 24 hours).
as §1
Here, the number of test wells (n) at peptide concentrations in peptide addition test groups was set to 6. Therefore, the value of the result shown in the following table is an average value of the results obtained in 6 test wells.
as §2, §3

Series [3] relates to human melanoma cell line (SK-MEL5). Nature of the series: Antitumor index from viability of SK-MEL5 cells vs MCF-12F normal cells (Cell Counting Kit-8, WST-8). It counts as cell-based. The conditions noted are these: 6.25 μM, 48 hours.
Series [4] has as its system A2058 cells (tumor cells). It counts as cell-based, human. The conditions noted are these: 48 hours; for Cell viability (%): human. On the procedure: Then, peptide-containing test culture mediums for each concentration were prepared so that the concentrations of the sample peptides to be evaluated were 6.25 μM, 12.5 μM, and 25 μM and supplied to wells (that is, wells after the pre-incubation) in which 90 μL of cells to be evaluated were cultured in each well. Then, the 96-hole (well) plate was returned to the CO2 incubator and incubated under conditions of 37° C. and 5% CO2 for 48 hours. After the incubation for 48 hours was completed, the culture medium in each well was substituted with 100 μL of a fresh culture medium containing no peptide, and additionally, 10 μL of a cell proliferation measurement reagent “Cell Counting Kit-8” (product, commercially available from Dojindo Laboratories) containing a “water-soluble tetrazolium salt (WST-8)” as a coloring reagent was added to each well. Then, the 96-well plate was returned to the CO2 incubator and incubated under conditions of 37° C., and 5% CO2 for 1.5 hours to 2 hours. After the incubation was completed, the cell culture solution to which the reagent was added was collected and the cell viability (%) was calculated according to a colorimetric method in which an absorbance at a wavelength of 450 nm (value corrected by the absorbance at a wavelength of 620 nm: A450-A620) was measured based on the reduction of the tetrazolium salt. Specifically, a measured value (measurement absorbance) of a comparative test group in which the above incubation was performed for 48 hours in a culture medium containing no sample peptide was set as a cell viability of 100%. Then, the viability A (%) of A2058 cells and the viability B (%) of MCF-12F cells were calculated. In addition, an antitumor index was calculated based on the viability of A2058 cells and MCF-12F cells using the above Formula (1), and thus the antitumor activity of the sample peptide with respect to A2058 cells was evaluated. Using tumor cells as targets, the antitumor activity was evaluated using a synthetic peptide having a sequence completely different from those of Samples 1 to 4. Specifically, the viability (%) of A2058 cells (tumor cells) when Sample 5 was treated was evaluated. Details of the test were as those described in Test Example 2. Here, the viability of A2058 cells cultured in a culture medium containing no Sample 5 for the same time was set as 100%, and the viability (%) of A2058 cells cultured under the treatment of Sample 5 was calculated.

Where two headings read alike, the source gives them in different places. Where no end group is shown, it is not given here.

With “IAAVIFGFLATAAYAVNTFLAKKRTLRKNDRKKR (IAAVIFGFLATAAYAVNTFLAKKRTLRKNDRKKR-NH2) [Sample 4]”, in series [1], the “Proliferation of CAKI2 cells (in words)” value is recorded as “significantly reduced proliferation”. Further, the Antitumor index in series [1] (peptide 6.25 μM) came to 1.41; in series [1] (peptide 12.5 μM), 0.83; in series [1] (peptide 25 μM) it was 0.22; in series [2] (peptide 6.25 μM), 0.84; in series [2] (peptide 12.5 μM), 0.65; in series [2] (peptide 25 μM) it was 0.12. In addition, the “Antitumor activity / proliferation of A2058 cells (in words)” value in series [2] is reported as “stronger antitumor activity”.
Regarding “LVNTGLSAFLFFIASIVLAALKKRTLRKNDRKKR (LVNTGLSAFLFFIASIVLAALKKRTLRKNDRKKR-NH2) [Sample 3]”, the “Proliferation of CAKI2 cells (in words)” value in series [1] was “significantly reduced proliferation”. In addition, the Antitumor index in series [1] (peptide 6.25 μM) was determined as 0.77; in series [1] (peptide 12.5 μM), 0.1. In addition, the “Antitumor activity / proliferation of A2058 cells (in words)” value in series [2] is on record as “stronger antitumor activity”. Besides, the “Proliferation of SK-MEL5 cells (in words)” value in series [3] is reported as “significantly reduced proliferation”.
For the substance “MGSNLSPQLCLMPFILGLLSGGVTTKKRTLRKNDRKKR-NH2 [Sample 5]”, in series [4] (A2058 cells, 6.25-25 μM), the “Antitumor activity (in words)” value is “no antitumor activity”. For the same substance, the “Cell viability (%)” value in series [4] (6.25 μM) is 110.7%; in series [4] (12.5 μM), 109.9%; in series [4] (25 μM) it was 113.6%.
Regarding “VAQVILALIAFICIETIMACSKKRTLRKNDRKKR (VAQVILALIAFICIETIMACSKKRTLRKNDRKKR-NH2; cysteine pairing not given here) [Sample 1]”, the results for the Antitumor index in series [2] (peptide 6.25 μM), in series [2] (peptide 12.5 μM) and in series [2] (peptide 25 μM) were 1.17, 0.71 and 0.74, respectively.
In the same order, the values of “YFFEFVSCSAFVVTGVLLIMFKKRTLRKNDRKKR [Sample 2]” are 0.79, 0.61 and 0.52.

(Values after patent US11603395B2, “Antitumor peptide and use thereof” (TOAGOSEI CO., LTD, priority 2019, dated 2023).)
